Source: ChEMBL document CHEMBL4364262 (J Med Chem, 2019)
Where a SMILES comes first, the peptide text is derived from it. Bridges are numbered along the chain shown (N, C = ends). [ ]: non-standard residue; d: D form. Nle(6-COOH) = N[C@@H](CCCCC(=O)O)C(=O)O; Nle = CCCC[C@H](N)C(=O)O

What was measured:
Type in all cases: cell-based
[1] = Antagonist activity at rat alpha6alpha3beta4 nAChR expressed in Xenopus laevis oocytes assessed as inhibition of Ach-induced response at -70 mV holding potential by two electrode voltage-clamp assay
[2] = target: T1, Neuronal acetylcholine receptor; alpha3/beta2 (Rattus norvegicus) (UniProt P04757+P12390); experiment: Antagonist activity at rat alpha3beta2 nACHR expressed in Xenopus laevis oocytes assessed as Ach-induced current amplitude at 100 nM at -70 mV holding potential by two electrode voltage-clamp assay relative to control; design: scale not given: the % may be the effect or the level left
[3] = target: nicotinic acetylcholine receptor alpha6/alpha3/beta2/beta3 (Rattus norvegicus, UniProt P04757+P12390+P12391+P43143); experiment: Antagonist activity at rat alpha6alpha3beta2beta3 nAChR expressed in Xenopus laevis oocytes assessed as Ach-induced current amplitude at 10 nM at -70 mV holding potential by two electrode voltage-clamp assay relative to control
[4] = target: T1, Neuronal acetylcholine receptor; alpha3/beta2 (Rattus norvegicus); experiment: Antagonist activity at rat alpha3beta2 nACHR expressed in Xenopus laevis oocytes assessed as Ach-induced current amplitude at 10 nM at -70 mV holding potential by two electrode voltage-clamp assay relative to control

Chain of nicotinic acetylcholine receptor alpha6/alpha3/beta2/beta3 (P04757 whole entry): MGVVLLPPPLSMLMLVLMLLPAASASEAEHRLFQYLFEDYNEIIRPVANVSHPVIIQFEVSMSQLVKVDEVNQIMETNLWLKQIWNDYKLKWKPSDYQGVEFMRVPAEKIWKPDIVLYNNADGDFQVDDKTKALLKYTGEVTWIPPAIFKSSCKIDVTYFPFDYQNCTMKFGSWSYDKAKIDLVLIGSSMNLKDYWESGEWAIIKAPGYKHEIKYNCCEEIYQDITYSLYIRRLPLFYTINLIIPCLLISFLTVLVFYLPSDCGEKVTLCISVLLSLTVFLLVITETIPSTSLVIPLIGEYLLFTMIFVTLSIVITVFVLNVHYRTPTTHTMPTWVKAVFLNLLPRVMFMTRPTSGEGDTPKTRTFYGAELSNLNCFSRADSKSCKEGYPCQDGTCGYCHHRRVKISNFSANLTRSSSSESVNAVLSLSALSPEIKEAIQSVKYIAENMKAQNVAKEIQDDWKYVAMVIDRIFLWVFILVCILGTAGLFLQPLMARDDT
Chain of nicotinic acetylcholine receptor alpha6/alpha3/beta2/beta3 (P12390 whole entry): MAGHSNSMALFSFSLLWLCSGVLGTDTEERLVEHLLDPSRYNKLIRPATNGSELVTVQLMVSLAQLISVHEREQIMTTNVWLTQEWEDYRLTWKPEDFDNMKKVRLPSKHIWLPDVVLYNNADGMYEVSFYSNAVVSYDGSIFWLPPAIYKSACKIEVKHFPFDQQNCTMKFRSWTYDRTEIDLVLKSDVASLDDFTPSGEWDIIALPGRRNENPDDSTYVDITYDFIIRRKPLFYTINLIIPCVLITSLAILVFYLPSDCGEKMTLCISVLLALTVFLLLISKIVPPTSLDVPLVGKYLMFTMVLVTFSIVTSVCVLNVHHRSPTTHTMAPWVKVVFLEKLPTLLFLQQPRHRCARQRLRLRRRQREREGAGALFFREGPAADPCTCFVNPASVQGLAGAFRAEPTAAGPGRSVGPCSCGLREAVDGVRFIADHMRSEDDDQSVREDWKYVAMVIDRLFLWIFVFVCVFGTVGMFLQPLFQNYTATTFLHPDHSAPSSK
Chain of nicotinic acetylcholine receptor alpha6/alpha3/beta2/beta3 (P12391 whole entry): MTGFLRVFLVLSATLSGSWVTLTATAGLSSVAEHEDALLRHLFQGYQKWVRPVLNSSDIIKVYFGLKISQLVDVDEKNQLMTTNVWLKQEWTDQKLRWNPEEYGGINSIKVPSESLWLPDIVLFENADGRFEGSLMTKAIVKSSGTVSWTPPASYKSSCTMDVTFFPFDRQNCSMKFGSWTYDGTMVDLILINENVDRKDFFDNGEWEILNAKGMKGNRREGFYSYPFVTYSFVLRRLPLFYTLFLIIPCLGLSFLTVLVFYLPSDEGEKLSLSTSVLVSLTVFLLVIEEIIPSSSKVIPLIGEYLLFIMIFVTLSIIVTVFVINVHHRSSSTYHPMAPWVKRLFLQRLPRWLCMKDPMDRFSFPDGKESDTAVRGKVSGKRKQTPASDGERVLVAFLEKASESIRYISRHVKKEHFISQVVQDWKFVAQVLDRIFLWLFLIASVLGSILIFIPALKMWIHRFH
Chain of nicotinic acetylcholine receptor alpha6/alpha3/beta2/beta3 (P43143 whole entry): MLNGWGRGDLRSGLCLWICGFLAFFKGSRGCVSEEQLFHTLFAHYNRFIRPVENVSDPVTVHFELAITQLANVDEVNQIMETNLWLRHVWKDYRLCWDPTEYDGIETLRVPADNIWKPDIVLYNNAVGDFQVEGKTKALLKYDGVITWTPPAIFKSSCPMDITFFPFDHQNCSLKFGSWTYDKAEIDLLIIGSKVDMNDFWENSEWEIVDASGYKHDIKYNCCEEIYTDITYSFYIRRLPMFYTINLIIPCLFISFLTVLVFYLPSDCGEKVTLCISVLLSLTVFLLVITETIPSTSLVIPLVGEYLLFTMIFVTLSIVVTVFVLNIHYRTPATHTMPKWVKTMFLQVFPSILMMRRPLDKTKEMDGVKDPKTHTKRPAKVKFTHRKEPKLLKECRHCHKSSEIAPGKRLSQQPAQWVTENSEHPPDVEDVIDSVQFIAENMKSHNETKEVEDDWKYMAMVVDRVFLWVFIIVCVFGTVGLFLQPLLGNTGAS

## CC[C@H](C)[C@@H]1NC(=O)[C@H](CCC(=O)O)NC(=O)[C@@H]2CCCN2C(=O)[C@H](Cc2cnc[nH]2)NC(=O)[C@H](CCCCC(=O)O)NC(=O)[C@H]([C@@H](C)CC)NC(=O)[C@H](Cc2cnc[nH]2)NC(=O)[C@@H]2CSSC[C@H](NC(=O)CN)C(=O)N[C@@H](CSSC[C@@H](C(N)=O)NC1=O)C(=O)N[C@@H](CO)C(=O)N[C@@H](Cc1cnc[nH]1)C(=O)N1CCC[C@H]1C(=O)N[C@@H](C)C(=O)N2 (H-GCCSHPACHI[Nle(6-COOH)]HPEIC-NH2; disulfide 2-8, 3-16)
[1]
  IC50: 77.3 nM

## CCCC[C@@H]1NC(=O)[C@H](Cc2cnc[nH]2)NC(=O)[C@@H]2CSSC[C@H](NC(=O)CN)C(=O)N[C@@H](CSSC[C@@H](C(N)=O)NC(=O)[C@H](CC(C)C)NC(=O)[C@H](CCC(=O)O)NC(=O)[C@@H]3CCCN3C(=O)[C@H](Cc3cnc[nH]3)NC(=O)[C@H](CCCCC(=O)O)NC1=O)C(=O)N[C@@H](CO)C(=O)N[C@@H](Cc1cnc[nH]1)C(=O)N1CCC[C@H]1C(=O)N[C@@H](C)C(=O)N2 (H-GCCSHPACH[Nle][Nle(6-COOH)]HPELC-NH2; disulfide 2-8, 3-16)
[1]
  IC50: 120 nM

## CCCC[C@@H]1NC(=O)[C@H](Cc2cnc[nH]2)NC(=O)[C@@H]2CSSC[C@H](NC(=O)CN)C(=O)N[C@@H](CSSC[C@@H](C(N)=O)NC(=O)[C@H]([C@@H](C)CC)NC(=O)[C@H](CCC(=O)O)NC(=O)[C@@H]3CCCN3C(=O)[C@H](Cc3cnc[nH]3)NC(=O)[C@H](CCCCC(=O)O)NC1=O)C(=O)N[C@@H](CO)C(=O)N[C@@H](Cc1cnc[nH]1)C(=O)N1CCC[C@H]1C(=O)N[C@@H](C)C(=O)N2 (H-GCCSHPACH[Nle][Nle(6-COOH)]HPEIC-NH2; disulfide 2-8, 3-16)
[1]
  IC50: 205 nM
[2]
  Activity: 2%
[3]
  inhibition at 0.01 µM: 90%
[4]
  inhibition: 8%

## CC[C@H](C)[C@@H]1NC(=O)[C@H](Cc2cnc[nH]2)NC(=O)[C@@H]2CSSC[C@H](NC(=O)CN)C(=O)N[C@@H](CSSC[C@@H](C(N)=O)NC(=O)[C@H](CC(C)C)NC(=O)[C@H](CCC(=O)O)NC(=O)[C@@H]3CCCN3C(=O)[C@H](Cc3cnc[nH]3)NC(=O)[C@H](CCCCC(=O)O)NC1=O)C(=O)N[C@@H](CO)C(=O)N[C@@H](Cc1cnc[nH]1)C(=O)N1CCC[C@H]1C(=O)N[C@@H](C)C(=O)N2 (H-GCCSHPACHI[Nle(6-COOH)]HPELC-NH2; disulfide 2-8, 3-16)
[1]
  IC50: 43.1 nM
